Source: US11697640B2, “Compounds for treating proliferative diseases” (Children's Medical Center Corporation, priority 2015, dated 2023)

Key:
tubulin = experiment: Tubulin polymerization assay (Cytoskeleton Inc. kit, fluorescent reporter); assay type: biochemical; details: fluorescence-based polymerization kinetics
Description: Tubulin polymerization was measured using the tubulin polymerization assay kit from Cytoskeleton Inc., which measures tubulin polymerization kinetic via fluorescent enhancement to the incorporation of a fluorescent reporter into microtubules as polymerization takes place.

[1] = Viability assay: effect of selected compounds on viability; assay type: cell-based; details: for viability at 1 µM: 1.0 μM compound; for viability at 10 µM: 10 μM compound
[2] = tested on: PC3M-prostate cancer cells; experiment: Imaging of microtubule stability by tubulin staining and confocal microscopy; assay type: cell-based, human; details: PC3M cells, 24, 48 and 72 hours
Description: Cells were seeded on glass coverslips. 24 hours later, cells were treated with compound OBD9. After the indicated times (24 hours, 48 hours, and 72 hours), cells were fixed with paraformaldehyde (4% in PBS), permeabilized Triton-X100 (0.02% in Phosphate buffered saline), then stained with mouse antibody to human tubulin (1:200 dilution) and then with 1:400 goat anti-mouse IgC (Invitrogen) and viewed via confocal microscopy at (63× objective).

[3] = tested on: parental (DU145) prostate cancer cells; experiment: Apoptosis by PARP-1 and Caspase-3 blot after 48 h treatment; assay type: cell-based; details: 48 hours after treatment
Description: (§1) Cells were seeded in 6-well dishes at 50% confluence. Cells were treated with the compound OBD9 after 24 hours. 48 hours later, cells were lysed with lysis buffer and protein was collected and quantified with the BCA assay (Invitrogen). 20 micrograms of protein were loaded on 10% polyacrylamide gels. The gels were blotted onto nitrocellulose and stained with rabbit antibody to PARP-1 and Caspase-3 (both from Cell Signaling) and then visualized with goat, anti-rabbit HRP-conjugated antibody and HRP conjugated GAPDH.

[4] = tested on: high metastatic (DU145LN4) prostate cancer cells; experiment: as above; assay type: cell-based; details: 48 hours after treatment
Description: as §1

| SMILES | effect on tubulin polymerization (tubulin) | viability at 1 µM [1] [%] | viability at 10 µM [1] [%] | effect on microtubule (tubulin) stability [2] | apoptosis induction (PARP-1, Caspase-3) [3] | apoptosis induction (PARP-1, Caspase-3) [4] |
| --- | --- | --- | --- | --- | --- | --- |
| COC(=O)Nc1nc2cc(C(=O)c3ccc(N(C)C4COC4)cc3)ccc2[nH]1 [Compound 9] | disrupts (inhibits) tubulin polymerization | 34.9 | 34.3 | interferes with microtubule (tubulin) stability | induces apoptosis | induces apoptosis |
| COC(=O)Nc1nc2cc(Oc3cccc(N4CCN(C)CC4)n3)ccc2[nH]1 [Compound 12] |  | 94.5 | 35.2 |  |  |  |
| COC(=O)Nc1nc2cc(Oc3cccc(N4CCN(C)CC4)c3)ccc2[nH]1 [Compound 13] |  | 80.9 | 49.1 |  |  |  |
| CCCSc1ccc2[nH]c(NC(=O)OCCN(C)C)nc2c1 [Compound 15] |  | 97.4 | 35.3 |  |  |  |
| CCCSc1ccc2[nH]c(NC(=O)OCCCN(C)C)nc2c1 [Compound 16] |  | 90.1 | 90.3 |  |  |  |
| CN(C)CCCOC(=O)Nc1nc2cc(C(=O)c3ccc(F)cc3)ccc2[nH]1 [Compound 17] |  | 93.9 | 84.8 |  |  |  |
